Data: patent publication US4081433A, “D-Nle^4 -somatostatin and analogues thereof” (American Home Products Corporation, priority 1977, dated 1978)
Bridge positions count the residues as written; N and C are the ends. Square brackets hold non-standard residues; d marks the D form. Peptide text beside a SMILES is read from it. dNle = CCCC[C@@H](N)C(=O)O

Tested on: growth hormone
Test: Arginine-stimulated growth hormone secretion in Nembutal-anaesthetised rats
Format: in vivo
Details: albino male rats, 1 mg/kg subcutaneous
Method: The activity of the product of the preceding preparatory example, (D-Nle^4)Somatostatin, was determined by the following procedure:
Albino male rats were administered Nembutal intraperitoneally at a dose of 50 milligrams per kilogram. Fifteen minutes later a subcutaneous injection of the test compound or physiological saline was administered. Ten minutes later 0.5 milliliters of arginine (300 millligrams per milliliter, pH 7.2) is injected into the heart. Five minutes after receipt of the arginine the rats are decapitated and blood is collected into trasylol-EDTA.

SMILES: CCCC[C@H]1NC(=O)[C@@H](NC(=O)CNC(=O)[C@H](C)N)CSSC[C@@H](C(=O)O)NC(=O)[C@H](CO)NC(=O)[C@H]([C@@H](C)O)NC(=O)[C@H](Cc2ccccc2)NC(=O)[C@H]([C@@H](C)O)NC(=O)[C@H](CCCCN)NC(=O)[C@H](Cc2c[nH]c3ccccc23)NC(=O)[C@H](Cc2ccccc2)NC(=O)[C@H](Cc2ccccc2)NC(=O)[C@H](CC(N)=O)NC1=O [(D-Nle^4)Somatostatin, L-Alanyl-glycyl-L-cysteinyl-D-norleucyl-L-asparaginyl-L-phenylalanyl-L-phenylalanyl-L-tryptophyl-L-lysyl-L-threonyl-L-phenylalanyl-L-threonyl-L-seryl- L-cysteine cyclic (1.revreaction.14) disulfide] (H-AGC[dNle]NFFWKTFTSC-OH; disulfide 3-14)
- reducing secretion of growth hormone (in words): effective agent for reducing secretion of growth hormone
- growth hormone in blood (arginine injected 10 min later, blood 5 min after arginine, control 208±52 ng/ml, p<0.05): 83 ± 23 ng/mL
